Entries after “also recorded” stand apart in the source; their conditions may differ.
Experiments:
[1] = target: T1, ELIC I79Y (Dickeya chrysanthemi, UniProt P0C7B7, I79Y/INS163G); assay: Two-electrode voltage clamp, I79Y mutant ELIC expressed in Xenopus laevis oocytes; assay type: cell-based, Erwinia chrysanthemi
T1 construct: expressed in transfected cells; host or cells: Xenopus laevis oocytes injected with cRNA from ELIC-pTLN
Procedure: (§1) Stage V-VI Xenopus laevis oocytes were isolated[72] and deflocculated enzymatically in ND96 buffer without Ca^2+ (96 mM NaCl, 2 mM KCl, 1 mM MgCl2, 2 mM pyruvate, 5 mM HEPES, pH 7.4), but supplemented with 1 mg/mL collagenase B and 1 mg/mL trypsin inhibitor, for 2 h at room temperature under constant stirring. The deflocculation buffer was then gradually removed by washing the oocytes in ND96 buffer (96 mM NaCl, 2 mM KCl, 1 mM MgCl2, 1 mM CaCl2, 2 mM pyruvate, 5 mM HEPES, pH 7.4) for several iterations. The oocytes were then allowed to stir for an additional hour at room temperature under constant stirring with the buffer being periodically replaced until clear. To obtain optimal receptor expression, individually selected and healthy oocytes were injected with 0.2 ng cRNA for wild-type ELIC and 5 ng cRNA for mutants. Subsequently, oocytes were incubated for one day at 16 °C in ND96^+ buffer (96 mM NaCl, 2 mM KCl, 1 mM MgCl2, 1 mM CaCl2, 2 mM pyruvate, and 5 mM HEPES at pH 7.6). After expression, injected oocytes were placed in a RC-1Z oocyte chamber (Harvard Apparatus; Hamden, CT) containing buffer (pH 7.4) composed of 150 mM NaCl, 0.5 mM BaCl2, 10 mM HEPES, and 1 mM dithiothreitol or 1 µM atropine if cysteamine, or ACh, was used in the experiment, respectively. The presence of the reducing agent, dithiothreitol, ensures that the sulfhydryl group of cysteamine remains reduced.
(§2) Once in the oocyte chamber, whole-cell currents were recorded using a two-electrode voltage-clamp apparatus (OC-725C oocyte clamp; Harvard Apparatus), with a buffer flow rate of 5–10 mL min^−1. Currents in response to various additions of cysteamine and/or ACh, were measured with the transmembrane voltage clamped at −60 mV. Dose response curves for each wild-type and mutant ELIC were acquired from at least five oocytes in two different batches.
(§3) For identifying the half maximal effective concentration (EC50) and apparent Hill coefficient (nH) of cysteamine, dose response curves were created by taking the magnitude of each cysteamine-activated peak current (I) and normalizing this value to the maximal peak current in the presence of excess agonist (Imax). The log (base 10) cysteamine concentration in molar was then plotted on the x-axis against the fractional response (I/Imax) on the y-axis. The data was fitted using nonlinear regression with a variable slope sigmoidal dose response (Eq. 1, below) in GraphPad Prism (v.8.0.0).1 y=1/1+10^nH^LogEC50−X
Individual EC50 and Hill coefficients were averaged for each oocyte to derive a mean ± standard deviation. For identifying a half maximal inhibitory concentration (IC50) and Hill coefficient of ACh, a concentration of cysteamine corresponding to its EC50 was used in the presence of increasing concentrations of ACh. Peak currents elicited from cysteamine with ACh (I) were normalized to the initial cysteamine peak current in the absence of ACh (Io). The log (base 10) ACh concentration was then plotted on the x-axis against the fractional response (I/Io) on the y-axis. Subsequent steps were the same as above for deriving a cysteamine EC50 and Hill coefficient. The individual IC50 and Hill coefficients were averaged for each oocyte to derive a mean ± one standard deviation. Lastly, to identify four normalized response values, cysteamine at the 10% maximal effective concentration (EC10), 20% maximal effective concentration (EC20), EC50 and 90% maximal effective concentration (EC90), was applied in the presence and absence of 25 mM ACh. […]

[2] = target: T2, ELIC L240A (L9′A) (Dickeya chrysanthemi, UniProt P0C7B7, L239A); assay: Two-electrode voltage clamp, L240A (L9′A) mutant ELIC expressed in Xenopus laevis oocytes; assay type: cell-based, Erwinia chrysanthemi
T2 construct: expressed in transfected cells; host or cells: Xenopus laevis oocytes injected with cRNA from ELIC-pTLN
Procedure: as §1, §2, §3
(§4) Individual EC50 and Hill coefficients were averaged for each oocyte to derive a mean ± standard deviation. For identifying a half maximal inhibitory concentration (IC50) and Hill coefficient of ACh, a concentration of cysteamine corresponding to its EC50 was used in the presence of increasing concentrations of ACh. […]

[3] = target: T3, ELIC L240A (L9′A) + A75D/F133W (Dickeya chrysanthemi, UniProt P0C7B7, A75D/F133W/L239A); assay: Two-electrode voltage clamp, L9′A + A75D/F133W triple mutant ELIC expressed in Xenopus laevis oocytes; assay type: cell-based, Erwinia chrysanthemi
T3 construct: expressed in transfected cells; host or cells: Xenopus laevis oocytes injected with cRNA
Procedure: as §1, §2, §3, §4

[4] = target: T4, wild-type ELIC (Dickeya chrysanthemi, UniProt P0C7B7, INS163G); details: cited from earlier work
T4 construct: expressed in transfected cells; host or cells: Xenopus laevis oocytes injected with cRNA from ELIC-pTLN

[5] = target: ELIC F133W (Dickeya chrysanthemi, UniProt P0C7B7, F133W); assay: cell-based; assay type: cell-based, Erwinia chrysanthemi; details: F133W
Procedure: as §1, §2, §3
(§5) Individual EC50 and Hill coefficients were averaged for each oocyte to derive a mean ± standard deviation. For identifying a half maximal inhibitory concentration (IC50) and Hill coefficient of ACh, a concentration of cysteamine corresponding to its EC50 was used in the presence of increasing concentrations of ACh. Peak currents elicited from cysteamine with ACh (I) were normalized to the initial cysteamine peak current in the absence of ACh (Io). The log (base 10) ACh concentration was then plotted on the x-axis against the fractional response (I/Io) on the y-axis. Subsequent steps were the same as above for deriving a cysteamine EC50 and Hill coefficient. The individual IC50 and Hill coefficients were averaged for each oocyte to derive a mean ± one standard deviation. Lastly, to identify four normalized response values, cysteamine at the 10% maximal effective concentration (EC10), 20% maximal effective concentration (EC20), EC50 and 90% maximal effective concentration (EC90), was applied in the presence and absence of 25 mM ACh. The cysteamine-activated peak current with 25 mM ACh, was normalized to the cysteamine-activated peak current without ACh.

[6] = target: T5, ELIC A75D/F133W (Dickeya chrysanthemi, UniProt P0C7B7, A75D/F133W/INS163G); assay: Two-electrode voltage clamp, A75D/F133W double mutant ELIC expressed in Xenopus laevis oocytes; assay type: cell-based, Erwinia chrysanthemi
T5 construct: expressed in transfected cells; host or cells: Xenopus laevis oocytes injected with cRNA; DNA construct synthesised by Twist Bioscience
Procedure: as §1, §2, §3, §5

[7] = target: ELIC Y38W (Dickeya chrysanthemi, UniProt P0C7B7, Y38W); assay: Two-electrode voltage clamp, Y38W mutant ELIC expressed in Xenopus laevis oocytes; assay type: cell-based, Erwinia chrysanthemi; details: Y38W
Procedure: as §1, §2, §3, §5

[8] = test system: ELIC Y38W; assay: as above; assay type: cell-based, Erwinia chrysanthemi; details: Y38W
Procedure: as §1, §2, §3, §5

[9] = target: T6, ELIC A75D (Dickeya chrysanthemi, UniProt P0C7B7, A75D/INS163G); assay: Two-electrode voltage clamp, A75D mutant ELIC expressed in Xenopus laevis oocytes; assay type: cell-based, Erwinia chrysanthemi; details: A75D
T6 construct: expressed in transfected cells; host or cells: Xenopus laevis oocytes injected with cRNA from ELIC-pTLN

[10] = ACh 0.5 mM to 50 mM, followed by 5 mM cysteamine
[11] = cysteamine as agonist, read-out: Activation EC50
[12] = read-out: Cysteamine concentration corresponding to EC90

SMILES: NCCS [cysteamine]
- Increase in EC50 for cysteamine relative to wild-type [1]: 24 fold
- Peak current on application of ligand alone [1, 10]: robust peak current
- Activation Hill coefficient ([1]; estimate, cysteamine application for 30 s, 1.5 mM to 100 mM): 2.2 ± 0.3
- EC50 ([1]; estimate, cysteamine application for 30 s, 1.5 mM to 100 mM, read-out: Activation EC50): 14 ± 1 mM
- Current on application of ligand alone ([2]; L9′A, 30 s applications of ACh 0.5 to 50 mM, then 5 mM cysteamine): robust peak current; also recorded: robust activation
- Activation Hill coefficient ([2]; L240A (L9′A), cysteamine as agonist): 2.8 ± 0.1
- EC50 ([2]; L240A (L9′A), cysteamine as agonist, read-out: Activation EC50): 150 ± 10 µM
- Current on application of ligand alone ([3]; L9′A + A75D/F133W, 30 s applications of ACh 0.5 to 50 mM, then 5 mM cysteamine): robust peak current; also recorded: robust activation
- Activation Hill coefficient ([3]; L240A (L9′A) + A75D/F133W, cysteamine as agonist): 3.7 ± 0.3
- EC50 ([3]; L240A (L9′A) + A75D/F133W, cysteamine as agonist, read-out: Activation EC50): 4.3 ± 0.6 mM
- Action on ELIC [4]: agonists
- Cysteamine concentration corresponding to EC10 [5]: 1.6 mM
- Cysteamine concentration corresponding to EC20 [5]: 2.3 mM
- Increase in EC50 for cysteamine relative to wild-type [5]: 7 fold
- Activation Hill coefficient ([5]; cysteamine as agonist): 2.3 ± 0.3
- EC50 [5, 11]: 4.3 ± 0.6 mM
- Peak current on application of ligand alone [5, 10]: robust peak current
- EC90 [5, 12]: 11.3 mM
- Cysteamine concentration corresponding to EC10 [6]: 3.9 mM
- Cysteamine concentration corresponding to EC20 [6]: 4.8 mM
- Activation by amine (whole-cell response) ([6]; 25 mM amine, cysteamine at its EC50): still activated
- Activation Hill coefficient ([6]; cysteamine as agonist): 3.8 ± 0.3
- EC50 [6, 11]: 6.9 ± 0.7 mM
- EC90 [6, 12]: 12.3 mM
- Cysteamine concentration corresponding to EC10 [7]: 0.1 mM
- Cysteamine concentration corresponding to EC20 [7]: 0.2 mM
- Activation Hill coefficient ([7]; cysteamine as agonist): 1.4 ± 0.2
- EC50 [7, 11]: 500 ± 100 µM
- Peak current on application of ligand alone [7, 10]: robust peak current
- EC90 [7, 12]: 2.6 mM
- Change in EC50 for cysteamine compared to wild-type [8]: unchanged
- Cysteamine concentration corresponding to EC10 [9]: 0.6 mM
- Cysteamine concentration corresponding to EC20 [9]: 0.9 mM
- Increase in EC50 for cysteamine relative to wild-type [9]: 3 fold
- Activation Hill coefficient ([9]; cysteamine as agonist): 2.3 ± 0.5
- EC50 [9, 11]: 1.6 ± 0.4 mM
- Peak current on application of ligand alone [9, 10]: robust peak current
- EC90 [9, 12]: 4.2 mM

Reference: PMC9674596, “Origin of acetylcholine antagonism in ELIC, a bacterial pentameric ligand-gated ion channel” (Communications Biology, 2022)
